What was measured:
[1] = system: KCC2 expression (KCC2-2A-luciferase reporter); test: KCC2-2A-luciferase reporter compound screening with RTT KCC2 reporter neurons; assay type: cell-based, human; details: for B Score: MECP2-null RTT human KCC2 reporter neurons, LINCS, SMART, ICCB libraries, Luc/CTG normalized to in-plate DMSO, hit = B score >3; for KCC2 reporter activity in RTT neurons: RTT KCC2-2A-luciferase reporter neurons vs in-plate DMSO
Procedure, shortened: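 MECP2-null RTT human neurons carrying a KCC2-2A-luciferase reporter, differentiated 4 weeks, were treated with library compounds at 10 μM for 1–2 weeks at 37 °C. Lysate luciferase was normalized to CellTiter-Glo ATP per well and expressed as fold change over in-plate DMSO. Hits were called at B score >3.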

immature mouse neurons = test: Resting membrane potential and membrane capacitance of DIV6 immature mouse neurons; assay type: cell-based
human RTT neurons = test: mEPSC whole-cell patch-clamp recording in cultured human RTT neurons; assay type: cell-based; details: for mEPSC frequency enhancement: RTT neurons with KCC2 shRNA transfection; for frequency of mEPSCs / mEPSC amplitude: cultured human RTT neurons; for mEPSC amplitude: vs DMSO control
Source text: Moreover, a reduction in the number or the strength of excitatory glutamatergic synapses in RTT neurons has been observed in postmortem RTT patient brain samples (30), mouse models of RTT (53), and human stem cell-derived RTT neurons (54). Electrophysiology recording was utilized to assess whether KEECs could rescue the deficits in EGABA and excitatory synaptic transmission of RTT neurons. […] We further investigated whether the beneficial effect of KEECs is a direct result of the increases in neuronal KCC2 gene expression. […] Deficits in a number of morphological measurements, including nuclei size and neurite complexity and branching, are hallmarks of RTT neurons (54-56). […] To validate the morphological measurements, electrophysiological measurements of the neuronal membrane capacitance (Cm), an indicator of neuronal cell size (57) that is reduced in RTT neurons, were conducted.
Functionally mature human neuron cultures were obtained by seeding human WT or isogenic RTT NPCs on a layer of primary mouse astrocyte culture as previously described (57). In the cultured WT human neurons, KCC2 expression reaches mature level between 2-3 months (7). We therefore treated the WT or RTT human neurons 8-12 weeks in culture, with compounds for a duration of two weeks before conducting whole-cell patch-clamp recording. The extracellular bath solution, that perfused the recording chamber, consists of (in mM): 120 NaCl, 30 glucose, 25 HEPES, 5 KCl, 2 CaCl2, 1 MgCl2. The pH was adjusted to 7.3 with NaOH. The high-chloride internal pipette solution consists of (in mM): 147 KCl, 5 Na-phosphocreatine, 2 EGTA, 10 HEPES, 4 MgATP, and 0.5 Na2GTP; the pH 7.3 was adjusted with KOH. To record mini EPSC, the membrane potential was held at −70 mV, and 0.5 μM of TTX and 50 μM Picrotoxin were applied with bath solution to block action potential and GABAergic synaptic transmission.
To evoke GABA response, a pipette filled with 100 μM GABA solution was positioned 5-10 μm away from the neuronal cell body. Air pulses at the pressure of 10 p.s.i. and duration of 100 ms were generated with a Picrospritzer (Parker Instrumentation) to puff GABA solution onto neuronal cell body. Neuronal response to GABA puffs were recorded at different membrane holding potentials from −90 mV to +30 mV, and the EGABA values were calculated with linear regression. Electrophysiological signals were recorded with Multiclamp 700A patch-clamp amplifier and data were collected with Clamp 9 software (Molecular Devices, Palo Alto, CA), sampled at 10 kHz and filtered at 1 KHz. Off-line data analyses of mEPSC synaptic events were performed with MiniAnalysis software (Synaptosoft, Decator, GA). All experiments were performed at room temperature. A sample size of 5-8 neurons was used for EGABA measurements, while a sample size of 14-19 neurons was used for mEPSC measurements. All data were presented as mean±SEM. ANOVA test followed by the Bonferroni correction were used for statistical analysis. The Kolmogorov-Smirnov test was employed to compare the cumulative distribution between two datasets.

| Compound | B Score [1] | KCC2 reporter activity in RTT neurons [1] | resting membrane potential (immature mouse neurons) | mEPSC frequency enhancement (human RTT neurons) | frequency of mEPSCs (human RTT neurons) | mEPSC amplitude (human RTT neurons) | membrane capacitance (immature mouse neurons; vs DMSO control) |
| --- | --- | --- | --- | --- | --- | --- | --- |
| O=C1Nc2cc(Br)ccc2/C1=C1/Nc2ccccc2/C1=N\O [BIO, (2Z,3E)-6′-bromo-3-(hydroxyimino)-[2,3′-biindolinylidene]-2′-one] | 3.42 | significant increase of KCC2 reporter activity | does not significantly alter the resting membrane potential | abolished the effect | significantly increased the frequency of mEPSCs to levels equivalent to WT control | significantly increased mEPSC amplitude |  |
| O=C(c1ccc(/C=C/c2n[nH]c3ccccc23)cc1)N1CCNCC1 [KW-2449, (E)-(4-(2-(1H-indazol-3-yl)vinyl)phenyl)(piperazin-1-yl)methanone] | 5.45 | significant increase of KCC2 reporter activity | does not significantly alter the resting membrane potential | abolished the effect | significantly increased the frequency of mEPSCs to levels equivalent to WT control | significantly increased mEPSC amplitude | significantly increase the membrane capacitance |

From patent publication US12053465B2, “KCC2 expression enhancing compounds and uses thereof” (Whitehead Institute for Biomedical Research, priority 2017, dated 2024)
